From patent publication US11707539B2, “FAP-targeted radiopharmaceuticals and imaging agents, and uses related thereto” (Trustees of Tufts College, priority 2020, dated 2023) come the findings set out here.

Where a SMILES comes first, the peptide text is derived from it.

Series [1] deals with recombinant human FAP (Homo sapiens (Human), UniProt Q12884). Put plainly: In vitro enzyme IC50 assay, FAP (Example 10). It counts as biochemical. The settings on record: 10 min preincubation at 25° C., Z-Gly-Pro-AMC. Here is the method: Biological Materials: For the in vitro IC50 determination assays, recombinant human DPPIV, DPP9, FAP, and PREP were purchased from R&D Systems, and DPP8 was from Biomol International. Buffer systems used were A (25 mM Tris, pH 8.0), B (50 mM Tris, pH 7.5), C (50 mM Tris, 140 mM NaCl, pH 7.5), D (25 mM Tris, 250 mM NaCl, pH 7.5), and E (20 mM Tris, 20 mM KCl, pH 7.4). […] Substrate Specificity Assay. Peptide libraries (0.21 mM) were incubated for 24 h with 1 nM FAP in buffer E at 37° C. The reaction was quenched by the addition of 1.2 N HCl. The samples were analyzed by reverse-phase HPLC-MS on a Thermo Finnigan LCQ Duo, quantifying the peaks in the resulting base peak chromatograms. Relative cleavage values were determined by comparing the postquench abundance of intact peptides to those in the initial library.
In Vitro Enzyme IC50 Assays. Enzymatic activity of DPPIV, DPP8, DPP9, FAP, and PREP was measured at 25° C. on a Molecular Devices M2e multidetection microtiter plate reader, monitoring the fluorescence at an excitation wavelength of 380 nm and an emission wavelength of 460 nm. The substrate was either H-Gly-Pro-AMC for the DPPIV, DPP8, and DPP9 assays or Z-Gly-Pro-AMC for the FAP and PREP assays. The reaction mixture contained […], enzyme, buffer A (DPPIV and DPP9), buffer B (DPP8), buffer C (FAP), or buffer D (PREP) and a suitable amount of inhibitor (ranging between 10-4 and 10-11 M) in a total volume of 210 μL. The final enzyme concentrations were 0.1, 0.8, 0.4, 1.2, and 0.6 nM for DPPIV, DPP8, DPP9, FAP, and PREP, respectively. […] Those prepared in pH 2.0 solution were preincubated at 25° C. for 4 h prior to dilution. Immediately prior to the commencement of the experiment, the 100 mM stocks were further diluted to 10−3 M in the appropriate assay buffer, from which 1:10 serial dilutions were prepared. All inhibitors were tested in triplicate.

Series [2] deals with recombinant human fibroblast activation protein (FAP) (Homo sapiens (Human), UniProt Q12884). Put plainly: In vitro IC50 assay, fibroblast activation protein (Example 15). It counts as biochemical. The settings on record: Z-Gly-Pro-AMC, room temperature; read-out: FAP IC50. Here is the method:
(§1) The purpose of this assay is to determine the IC50 of various inhibitors against recombinant human dipeptidyl peptidase IV (DPPIV), fibroblast activation protein (FAP) or prolyl oligopeptidase (PREP).
(§2) The assays are conducted in the following steps: • 1 Dissolve the compound in DMSO to a final concentration of 100 mM. From this, prepare a 1 mM stock at pH 7.5 in 50 mM Tris, 140 mM NaCl Buffer (FAP)/pH 7.5 in 25 mM Tris, 250 mM NaCl Buffer/pH 8.0 140 mM NaCl Buffer (PREP). • 2. Serial dilute (1:10) the 1 mM compound stocks prepared previously into the appropriate assay buffer (FAP: 50 mM Tris, 140 mM NaCl, pH 7.5/PREP: 25 mM Tris, 0.25 M NaCl, pH 7.5/DPPIV: 25 mM Tris, pH 8.0) to one row of a 96-well plate. • 3. […] Dilute the enzymes into their appropriate assay buffers. The final enzyme concentrations should be 0.1, 1.2, and 0.6 nM for DPPIV, FAP and PREP respectively. Add 180 μL to each well needed in columns 2-10. Column 1 (A,B,C) should be prepared with 200 ul of appropriate assay buffer as control. Column 1 (D,E,F,G,H) should be prepared with 20 ul of appropriate assay buffer and 180 ul enzyme as no inhibitor control. • 5. Add 20 μL of the compound of interest from the dilution plate prepared in step 2 to columns 2-10 of the assay plate where appropriate. Each sample should be tested in triplicate. Allow this to incubate for 10 minutes at room temperature, shaking the plate for the first two minutes. • 6. Add 10 μL of 20× substrate prepared in step 3 to each well and allow this to incubate for 15 minutes at room temperature, shaking the plate for the first two minutes. • 7. Read the fluorescence at λex: 380, λem: 460. (DPcore=[dAla|dSerGly]-[boroPro|Pro-nitrile], XXaa=alpha-amino acid)

Series [3] deals with recombinant human prolyl oligopeptidase (PREP) (Homo sapiens (Human), UniProt P48147). Put plainly: In vitro IC50 assay, prolyl oligopeptidase (Example 15). The class given is biochemical. Conditions: Z-Gly-Pro-AMC, room temperature; read-out: PREP IC50. Here is the method:
as §1, §2

The target in series [4] is recombinant human dipeptidyl peptidase IV (DPPIV) (Homo sapiens (Human), UniProt P27487). Put plainly: In vitro IC50 assay, dipeptidyl peptidase IV (Example 15). Conditions: Gly-Pro-AMC, room temperature. The class given is biochemical. Here is the method:
as §1, §2

Series [5] in a line: Solubility in water after lyophilization.
A short description of series [6]: Stability in aqueous solution of pH about 3. The settings on record: during HPLC purification and subsequent lyophilization.

Sequence of recombinant human fibroblast activation protein (FAP) (Q12884 whole entry): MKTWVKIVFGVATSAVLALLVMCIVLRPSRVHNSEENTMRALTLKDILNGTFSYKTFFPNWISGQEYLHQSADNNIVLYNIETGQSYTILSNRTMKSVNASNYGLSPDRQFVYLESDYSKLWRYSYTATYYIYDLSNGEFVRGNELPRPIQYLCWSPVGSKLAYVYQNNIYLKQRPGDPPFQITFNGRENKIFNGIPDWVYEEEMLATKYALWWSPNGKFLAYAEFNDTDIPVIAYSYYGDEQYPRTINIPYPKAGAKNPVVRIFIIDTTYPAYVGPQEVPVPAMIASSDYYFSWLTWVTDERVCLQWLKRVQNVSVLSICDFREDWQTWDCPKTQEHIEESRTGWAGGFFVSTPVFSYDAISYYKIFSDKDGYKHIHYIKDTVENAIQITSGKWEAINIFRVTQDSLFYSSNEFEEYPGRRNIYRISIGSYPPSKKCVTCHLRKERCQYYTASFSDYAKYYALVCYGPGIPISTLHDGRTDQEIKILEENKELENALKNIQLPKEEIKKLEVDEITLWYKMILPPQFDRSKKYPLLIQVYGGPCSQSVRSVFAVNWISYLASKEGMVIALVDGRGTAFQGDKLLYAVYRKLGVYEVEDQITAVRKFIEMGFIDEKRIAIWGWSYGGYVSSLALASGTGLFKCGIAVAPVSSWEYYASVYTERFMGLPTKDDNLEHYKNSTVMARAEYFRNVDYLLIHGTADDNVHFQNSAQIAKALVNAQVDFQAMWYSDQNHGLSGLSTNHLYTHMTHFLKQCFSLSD
Sequence of recombinant human FAP (Q12884 whole entry): as above
Sequence of recombinant human dipeptidyl peptidase IV (DPPIV) (P27487 whole entry): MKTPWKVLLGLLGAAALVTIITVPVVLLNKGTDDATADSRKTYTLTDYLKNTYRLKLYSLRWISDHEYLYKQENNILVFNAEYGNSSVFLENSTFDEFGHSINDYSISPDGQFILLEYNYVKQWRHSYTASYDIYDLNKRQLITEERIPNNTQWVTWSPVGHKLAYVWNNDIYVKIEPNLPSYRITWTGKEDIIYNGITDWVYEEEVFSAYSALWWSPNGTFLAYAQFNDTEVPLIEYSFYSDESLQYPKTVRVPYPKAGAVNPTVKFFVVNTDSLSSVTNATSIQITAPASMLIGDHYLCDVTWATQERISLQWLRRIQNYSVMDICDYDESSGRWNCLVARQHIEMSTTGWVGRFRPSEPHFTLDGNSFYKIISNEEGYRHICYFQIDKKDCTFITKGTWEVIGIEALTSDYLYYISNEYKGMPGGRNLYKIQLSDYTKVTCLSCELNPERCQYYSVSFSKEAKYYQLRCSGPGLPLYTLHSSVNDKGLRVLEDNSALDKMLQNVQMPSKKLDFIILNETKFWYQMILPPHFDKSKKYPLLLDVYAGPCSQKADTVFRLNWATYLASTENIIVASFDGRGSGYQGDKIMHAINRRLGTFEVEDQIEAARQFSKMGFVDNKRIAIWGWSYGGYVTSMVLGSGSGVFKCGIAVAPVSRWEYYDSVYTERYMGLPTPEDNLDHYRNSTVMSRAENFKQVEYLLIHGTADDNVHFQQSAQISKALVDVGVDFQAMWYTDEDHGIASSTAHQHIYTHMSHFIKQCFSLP
Sequence of recombinant human prolyl oligopeptidase (PREP) (P48147 whole entry): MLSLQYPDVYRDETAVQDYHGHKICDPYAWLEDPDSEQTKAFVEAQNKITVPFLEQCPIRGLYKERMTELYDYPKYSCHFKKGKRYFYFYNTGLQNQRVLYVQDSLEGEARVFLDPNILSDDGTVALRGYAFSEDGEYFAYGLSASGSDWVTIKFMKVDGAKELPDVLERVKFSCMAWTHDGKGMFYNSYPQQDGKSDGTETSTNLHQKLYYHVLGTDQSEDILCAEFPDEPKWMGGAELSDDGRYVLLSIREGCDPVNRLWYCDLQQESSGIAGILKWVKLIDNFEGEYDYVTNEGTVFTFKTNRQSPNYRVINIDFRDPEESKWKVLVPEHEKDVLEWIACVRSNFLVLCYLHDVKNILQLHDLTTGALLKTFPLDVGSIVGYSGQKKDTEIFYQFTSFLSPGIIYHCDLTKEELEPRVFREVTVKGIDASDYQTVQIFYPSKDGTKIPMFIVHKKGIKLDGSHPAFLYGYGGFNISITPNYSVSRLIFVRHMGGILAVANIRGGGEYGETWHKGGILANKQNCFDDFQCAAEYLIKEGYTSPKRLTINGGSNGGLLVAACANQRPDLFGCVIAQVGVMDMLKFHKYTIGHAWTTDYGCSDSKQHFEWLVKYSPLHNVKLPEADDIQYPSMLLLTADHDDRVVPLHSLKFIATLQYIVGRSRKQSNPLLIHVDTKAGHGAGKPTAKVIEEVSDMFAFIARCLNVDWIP

`C[C@@H](NC(=O)c1ccc(NNC(=O)CCCNC(=O)CN2CCN3CCN4CCN(CC2)CC(=O)[O][Gd]([O]C(=O)C3)[O]C(=O)C4)cc1)C(=O)N1CCC[C@H]1B(O)O` [Compound 6489Gd, DOTA[Gd]-GABA-HyBz-D-Ala-boroPro]: the IC50 in series [1] came out at 0.0011 µM.
For the molecule `CC(C)[C@H](NC(=O)CN1CCN(CC(=O)O)CCN(CC(=O)O)CCN(CC(=O)O)CC1)C(=O)N[C@H](C)C(=O)N1CCC[C@H]1B(O)O` [Compound 6508, DOTA-Val-DAla-boroPro], the half-maximal inhibitory concentration (IC50) in series [1] turned out to be 0.062 µM.
On to `C[C@@H](NC(=O)[C@H](CO)NC(=O)CN1CCN2CCN(CC(=O)O)CCN(CC1)CC(=O)[O][Cu][O]C(=O)C2)C(=O)N1CCC[C@H]1B(O)O` [Compound 6509CU, DOTA[(Cu(II)]-Ser-D-Ala-boroPro], for which the IC50 in series [2] and in series [1] was 0.128 µM each time.
Regarding `C[C@H](NC(=O)CN1CCN(CC(=O)O)CCN(CC(=O)O)CCN(CC(=O)O)CC1)C(=O)N[C@H](C)C(=O)N1CCC[C@H]1B(O)O` [Compound 6511, DOTA-Ala-D-Ala-boroPro], in series [1], the IC50 came to 0.0717 µM.
The same measure, in the same setting: to `C[C@@H](NC(=O)CNC(=O)CN1CCN(CC(=O)O)CCN(CC(=O)O)CCN(CC(=O)O)CC1)C(=O)N1CCC[C@H]1B(O)O` [Compound 6512, DOTA-Gly-D-Ala-boroPro] belongs 0.0731 µM.
Take `CC(C)[C@H](NC(=O)CNC(=O)CNC(=O)CN1CCN2CCN(CC(=O)O)CCN(CC1)CC(=O)[O][Cu][O]C(=O)C2)C(=O)N[C@H](C)C(=O)N1CCC[C@H]1B(O)O` [Compound 6522CU, DOTA[(Cu(II)]-Gly-Gly-Val-D-Ala-boroPro] (HELM PEPTIDE1{[O=C(O)CN1CCN2CCN(CC(=O)[*:2])CCN(CC1)CC(=O)[O][Cu][O]C(=O)C2].G.G.V.[dA].[OB(O)[C@@H]1CCCN1[*:1]]}$$$$V2.0): the IC50 in series [2] was determined as 0.0035 µM; in series [1], 0.0087 µM.
As for `CC(C)[C@H](NC(=O)CNC(=O)CNC(=O)CN1CCN2CCN3CCN(CC1)CC(=O)[O][Lu]([O]C(=O)C2)[O]C(=O)C3)C(=O)N[C@H](C)C(=O)N1CCC[C@H]1B(O)O` [Compound 6522LU, DOTA(Lu)-Gly-Gly-Val-D-ala-boroPro] (HELM PEPTIDE1{[O=C1CN2CCN3CCN(CC(=O)[*:2])CCN(CC2)CC(=O)[O][Lu]([O]1)[O]C(=O)C3].G.G.V.[dA].[OB(O)[C@@H]1CCCN1[*:1]]}$$$$V2.0), the IC50 was 19 µM in series [3], 0.026 µM in series [2] and more than 100 µM in series [4].
In turn, `C[C@@H](NC(=O)c1ccc(CNC(=O)CN2CCN(CC(=O)O)CCN(CC(=O)O)CCN(CC(=O)O)CC2)cc1)C(=O)N1CCC[C@H]1B(O)O` [Compound 6555, DOTA-aminomethyl-Bz-D-Ala-boroPro] came in with a solubility in series [5] of more than 50 mg/mL. In addition, in series [6], the “degradation in aqueous solution” value is recorded as “did not observe any sign of degradation”. Moreover, the IC50 in series [4] is more than 100 µM.
In turn, `C[C@@H](NC(=O)c1ccc(CNC(=O)CN2CCN3CCN4CCN(CC2)CC(=O)[O][Ga]([O]C(=O)C3)[O]C(=O)C4)cc1)C(=O)N1CCC[C@H]1B(O)O` [Compound 6555GA] gave a solubility in series [5] of more than 50 mg/mL. In series [6], the “degradation in aqueous solution” value is “did not observe any sign of degradation”. Also, the IC50 in series [4] was more than 100 µM.
Take `C[C@@H](NC(=O)[C@H]1CC[C@H](CNC(=O)CN2CCN3CCN4CCN(CC2)CC(=O)[O][Ga]([O]C(=O)C3)[O]C(=O)C4)CC1)C(=O)N1CCC[C@H]1B(O)O` [Compound 6952GA, DOTA(Ga)-TXA-D-alaboroPro]: the solubility in series [5] is more than 50 mg/mL. Besides, in series [6], the “degradation in aqueous solution” value is “did not observe any sign of degradation”.
For “(R)-DOTAGA(Ga)-Gly-Val-Dala-boroPro [Compound 6795DGA]”, the figures for the 50% inhibitory concentration (IC50) in series [3], in series [2] and in series [4] were 9.4 µM, 0.31 µM and more than 100 µM, respectively.
For “DOTA[Cu(II)]-EACA-HyBz-D-Ala-boroPro [Compound 6486]”, the IC50 in series [2] and in series [1] was 0.0028 µM throughout.

A word on the IC50: it is the concentration at which inhibition is half-maximal. As a reminder, the solubility is the dissolved amount per volume that the medium holds. A low value points to little dissolved substance.
